Results taken from patent US7183075B2, “Purified and isolated potassium-chloride cotransporter nucleic acids and polypeptides and therapeutic and screening methods using same” (Vanderbilt University, priority 2000, dated 2007).
Like-named read-outs stand apart in the source and are kept apart here. Values belong to the compound of their own block, whether it stands above or below them.

Biological target: T1, mKCC4 (Mus musculus, UniProt Q9WVL3)
T1 construct: a full-length mKCC4 cDNA was used as a standard in the Xenopus expression vector pGEMHE; expressed in transfected cells; host or cells: Xenopus laevis oocytes injected with cRNA (pGEMHE, T7 transcript)
T1 sequence (Q9WVL3 1-1083 L71X/L155X/L467X/L586X/L639X/L1023X): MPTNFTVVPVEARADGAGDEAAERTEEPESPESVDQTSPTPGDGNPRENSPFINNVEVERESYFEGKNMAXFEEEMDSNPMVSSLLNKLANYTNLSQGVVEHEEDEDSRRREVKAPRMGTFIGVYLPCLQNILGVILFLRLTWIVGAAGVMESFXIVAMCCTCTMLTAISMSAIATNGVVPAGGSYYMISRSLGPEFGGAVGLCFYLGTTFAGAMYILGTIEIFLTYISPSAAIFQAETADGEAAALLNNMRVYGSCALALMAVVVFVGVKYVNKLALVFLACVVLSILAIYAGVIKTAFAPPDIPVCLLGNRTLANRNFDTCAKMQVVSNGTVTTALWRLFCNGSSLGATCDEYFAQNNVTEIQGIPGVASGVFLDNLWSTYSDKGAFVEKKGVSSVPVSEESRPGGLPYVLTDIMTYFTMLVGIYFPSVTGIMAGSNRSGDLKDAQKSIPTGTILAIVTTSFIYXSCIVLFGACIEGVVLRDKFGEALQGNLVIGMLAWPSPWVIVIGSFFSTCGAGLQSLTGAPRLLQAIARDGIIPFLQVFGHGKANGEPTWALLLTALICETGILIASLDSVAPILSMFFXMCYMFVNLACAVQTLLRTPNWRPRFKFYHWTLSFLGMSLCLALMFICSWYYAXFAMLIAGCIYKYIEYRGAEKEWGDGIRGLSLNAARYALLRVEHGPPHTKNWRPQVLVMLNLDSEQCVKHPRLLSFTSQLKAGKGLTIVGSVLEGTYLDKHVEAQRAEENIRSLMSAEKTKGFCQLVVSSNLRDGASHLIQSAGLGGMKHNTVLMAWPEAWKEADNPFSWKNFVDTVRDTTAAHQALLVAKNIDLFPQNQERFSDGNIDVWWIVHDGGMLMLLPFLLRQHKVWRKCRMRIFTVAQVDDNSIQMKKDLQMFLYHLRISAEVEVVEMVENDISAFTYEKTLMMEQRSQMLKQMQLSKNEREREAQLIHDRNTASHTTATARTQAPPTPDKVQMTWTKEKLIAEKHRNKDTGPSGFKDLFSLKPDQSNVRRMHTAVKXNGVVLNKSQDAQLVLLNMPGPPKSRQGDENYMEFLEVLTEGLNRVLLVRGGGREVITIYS
Experiment: 86Rb+ uptake (K+-Cl- cotransport) in Xenopus oocytes injected with mKCC4 cRNA
Assay type: cell-based
Settings: for relative KCC4 activity: 2 mM diuretic; for effect on activation of KCC4 by cell swelling: calyculin A 100 nM, okadaic acid 1 nM, cypermethrin 100 pM; for KCC4 function remaining: 100 μM DIDS
Description: Oocytes were surgically collected from anesthetized female Xenopus adults under 0.17% tricaine and incubated for 1 hour with vigorous shaking in frog Ringer ND96 (96 mM sodium chloride, 2 mM potassium chloride, 1.8 mM calcium chloride, 1.0 mM magnesium chloride, and 5 mM Hepes/Tris, pH 7.4) in the presence of 2 mg/ml collagenase B. Oocytes were then washed four times in ND96, manually defolliculated, and incubated overnight in ND96 at 18° C. On the next day, defolliculated stage V–VI oocytes were injected with 50 nl of water or a solution containing cRNA at a concentration of 0.25–0.5 μg/μl (25 ng/oocyte). Oocytes were incubated at 17–18° C. in ND96 (96 mM sodium chloride, 2 mM potassium chloride, 1.8 mM calcium chloride, 1.0 mM magnesium chloride, and 5 mM Hepes/Tris, pH 7.4), supplemented with 2.5 mM sodium pyruvate and 5 mg/100 ml gentamicin, for 3–4 days. The incubation medium was changed every 24 hours. On the day of the experiment, oocytes were switched to Cl^−-free ND96 (96 mM Na^+ Na^+ isethionate, 2 mM K^+ gluconate, 6 mM Ca^2+ gluconate, 1 mM Mg^2+ gluconate, 5 mM Hepes, 2.5 mM sodium pyruvate, 5 mg/100 ml gentamicin, pH 7.4) for 2 hours prior to the uptake assay.
For functional expression and in vitro translation, a full-length mKCC4 cDNA was used as a standard in the Xenopus expression vector pGEMHE (Liman et al. (1992) Neuron 9:861–871). The resulting construct contains nucleotides 55–3812 of mKCC4 (SEQ ID NO:13). For functional comparison with mKCC4, a full-length rabbit KCC1 cDNA was subcloned into pGEMHE. […] […] Transcription product integrity was confirmed on agarose gels, and concentration was determined by absorbance reading at 260 nm (DU 640 available from Beckman of Fullerton, Calif.).
K^+—Cl^− cotransport was assessed by measuring tracer ^86Rb^+ uptake (NEN® Life Science Products of Boston, Mass.) in experimental groups of at least 15 oocytes. […] All uptake solutions also contained 1.8 mM CaCl2, 1 mM MgCl2, 5 mM Hepes, pH 7.4, and were supplemented with 1 mM ouabain and […] ^86Rb^+. Isotonic conditions were generated by supplementing the same solutions with 3.5 g/100 ml sucrose to reach isosmolar conditions for oocytes (˜210 mOsm/kg). Ouabain was added to prevent ^86Rb^+ uptake via the Na^+—K^+-ATPase. The absence of extracellular Na^+ and the hypotonicity of the uptake medium prevented ^86Rb^+ uptake via the endogenous Na^+—K^+-2Cl^− cotransporter that is present in oocytes (Gamba et al. (1994) J Biol Chem 269:17713–17722).
All uptake assays were performed at 32° C. At the end of the uptake period, oocytes were washed five times in ice-cold uptake solution without isotope to remove extracellular fluid tracer. Oocytes were dissolved in 10% SDS, and tracer activity was determined for each oocyte by β-scintillation counting.
To determine the ion transport kinetics of KCC4 and KCC1, ^86Rb^+ uptake experiments were performed in variable concentrations of K^+ and Cl^−. […]

[1] = 2 mM extracellular K+, hypotonic
[2] = 50 mM extracellular K+, hypotonic
[3] = KCC4, counterion fixed at 50 mM, hypotonic
[4] = KCC4, counterion fixed at 50 mM, hypotonic, read-out: calculated apparent Km for extracellular ion concentration

relative KCC4 activity [1]: 79±3%
relative KCC4 activity [2]: 57±9%
Compound: NS(=O)(=O)c1cc2c(cc1Cl)NC(C(Cl)Cl)NS2(=O)=O (stereo not drawn) [trichlormethiazide]

relative KCC4 activity [1]: 90±4%
relative KCC4 activity [2]: 17±4%
IC50 (KCC4, 10 mM extracellular K+, read-out: apparent half-maximal inhibition (K=0.5) of Cl−-dependent 86Rb+ uptake): ~900 µM
Compound: CCCCNc1cc(C(=O)O)cc(S(N)(=O)=O)c1Oc1ccccc1 [bumetanide]

Compound: C=C1[C@@H](O)[C@@H]2O[C@]3(CC[C@H](/C=C/[C@@H](C)[C@@H]4CC(C)=C[C@@]5(O[C@H](C[C@@](C)(O)C(=O)O)CC[C@H]5O)O4)O3)CC[C@H]2O[C@@H]1[C@@H](O)C[C@H](C)[C@H]1O[C@@]2(CCCCO2)CC[C@H]1C [okadaic acid]
effect on activation of KCC4 by cell swelling (hypotonic): neither okadaic acid, nor cypermethrin prevented this activation

Compound: [Ba+2].[Cl-].[Cl-] [BaCl2]
KCC4-induced influx, % of uptake in control oocytes (10 mM BaCl2 in hypotonic uptake medium): 58±4.3%

Compound: CC1(C)C(C=C(Cl)Cl)C1C(=O)OC(C#N)c1cccc(Oc2ccccc2)c1 (stereo not drawn) [cypermethrin]
effect on activation of KCC4 by cell swelling (hypotonic): neither okadaic acid, nor cypermethrin prevented this activation

Compound: [K+] [Potassium]
Hill coefficient (KCC4): 1.08±0.2
calculated apparent Vmax for extracellular ion concentration [3]: 32,370±2,115 pmol×oocyte^−1×hour^−1
Km [4]: 17.5 ± 2.7 mM
Km (KCC4, read-out: Potassium Km): 17.5 mM

Compound: COC[C@@H]([C@H](O)[C@H](O)C(=O)NCC[C@H](C)c1nc(/C=C/C[C@@H]2O[C@]3(C[C@@H](O)[C@@H]2C)O[C@H]([C@H](C[C@H](O)[C@H](C)[C@H](O)[C@H](C)/C=C(C)/C(C)=C/C=C/C(C)=C\C#N)OC)[C@H](OP(=O)(O)O)C3(C)C)co1)N(C)C [calyculin A]
effect on activation of KCC4 by cell swelling (hypotonic): completely prevents the activation

Compound: HgCl2 [Hg—Cl2]
response of KCC4 to mercury (50 μM HgCl2, hypotonic): sensitive

Compound: CCN1C(=O)C=CC1=O [NEM, N-ethylmaleimide]
reduction of KCC4-induced 86Rb+ uptake (1 mM NEM, hypotonic): 68%
fold activation of KCC4 (1 mM NEM, isotonic): 5 fold
86Rb+ uptake in NEM-treated group (KCC4, 1 mM NEM, isotonic): 1062±70 pmol×oocyte^−1×hour^−1

KCC4 function remaining [1]: 65±10%
KCC4 function remaining [2]: 13±4%
Compound: O=S(=O)(O)c1cc(N=C=S)ccc1C=Cc1ccc(N=C=S)cc1S(=O)(=O)O [DIDS]

effect on KCC4-induced 86Rb+ uptake (100 μM DIOA, hypotonic): inhibition
Compound: CCCCC1(C2CCCC2)Cc2cc(OCC(=O)O)c(Cl)c(Cl)c2C1=O (stereo not drawn) [DIOA]

Compound: Cl [Chloride]
Hill coefficient (KCC4): 1.06±0.3
calculated apparent Vmax for extracellular ion concentration [3]: 41,440±4,174 pmol×oocyte^−1×hour^−1
Km [4]: 16.1 ± 4.2 mM
Km (KCC4, read-out: Chloride Km): 15.3 mM
